IC50 and EC50 data for nine compounds are collected here from ChEMBL document CHEMBL4411258, “Novel natural compounds from endophytic fungi with anticancer activity” (Eur J Med Chem, 2018).

Holding throughout (format): functional, cell-based
One assay has as its system MMQ. Nature of the assay: Cytotoxicity against rat MMQ cells by MTT assay.
For another assay, the system named is GH3. The assay can be described thus: Cytotoxicity against rat GH3 cells by MTT assay. (In general: Tetrazolium dyes change colour on reduction, which living cells bring about.)
The test system of another assay is MIA PaCa-2. Nature of the assay: Cytotoxicity against human MIAPaCa2 cells after 48 hrs by MTT assay. The note with it: MIA PaCa-2, 48 h.
Assay [1] concerns HL-60. The assay can be described thus: Cytotoxicity against human HL60 cells.
In assay [2] the test system is HCT-116. The assay can be described thus: Cytotoxicity against human HCT116 cells after 48 hrs by sulforhodamine B assay. The note with it: HCT-116, 48 h. A general note: In SRB staining, fixed cells bind dye roughly in proportion to their protein.
Assay [3] has as its system MCF7. The assay can be described thus: Cytotoxicity against human MCF7 cells after 48 hrs by sulforhodamine B assay. Particulars: Homo sapiens, MCF7, 48 h.
In the next assay the test system is NCI-H460. The assay can be described thus: Cytotoxicity against human NCI-H460 cells after 48 hrs by sulforhodamine B assay. Particulars: Homo sapiens, NCI-H460, 48 h.
The next assay relates to A2780cisR. The assay can be described thus: Cytotoxicity against human A2780cisR cells after 72 hrs by CyQuant dye-based assay.
Another assay deals with A2780S. Nature of the assay: Cytotoxicity against human A2780S cells after 72 hrs by CyQuant dye-based assay.
The test system of assay [4] is MCF7. The assay can be described thus: Cytotoxicity against human MCF7 cells after 48 hrs by MTS assay. Particulars: MCF7, 48 h.
A further assay deals with SW480. The assay can be described thus: Cytotoxicity against human SW480 cells after 48 hrs by MTT assay. The note with it: SW480, 48 h.
Assay [5] has as its system HL-60. The assay can be described thus: Cytotoxicity against human HL60 cells after 48 hrs by MTT assay. The note with it: HL-60, 48 h.
For a further assay, the system named is SMMC-7721. Nature of the assay: Cytotoxicity against human SMMC7721 cells after 48 hrs by MTT assay. Particulars: Homo sapiens, SMMC-7721, 48 h; read-out: IC50.
For another assay, the system named is RPMI-8226. The assay can be described thus: Cytotoxicity against human RPMI8226 cells after 48 hrs by MTT assay. Particulars: RPMI-8226, 48 h.
In assay [6] the test system is A549. Nature of the assay: Cytotoxicity against human A549 cells after 48 hrs by MTT assay. The note with it: Homo sapiens, A549, 48 h; read-out: IC50.
The subject of the next assay is THP-1. The assay can be described thus: Cytotoxicity against human THP1 cells by MTS assay.
Assay [7] concerns A549. Nature of the assay: Cytotoxicity against human A549 cells by MTS assay.
Assay [8] has as its system MDA-MB-231. The assay can be described thus: Cytotoxicity against human MDA-MB-231 cells by MTS assay.
In assay [9] the test system is HCT-116. Nature of the assay: Cytotoxicity against human HCT116 cells by MTS assay.
The test system of another assay is HepG2. The assay can be described thus: Cytotoxicity against human HepG2 cells by MTS assay.
Assay [10] deals with MCF7. Nature of the assay: Cytotoxicity against human MCF7 cells by MTT assay.
The next assay concerns U2OS. The assay can be described thus: Cytotoxicity against human U2OS cells by MTT assay.
A further assay relates to Caco-2. Nature of the assay: Cytotoxicity against human Caco2 cells after 72 hrs by MTT assay. The note with it: Caco-2, 72 h.
Assay [11] has as its system MCF7. The assay can be described thus: Cytotoxicity against human MCF7 cells after 72 hrs by MTT assay. Particulars: MCF7, 72 h.
Assay [12] relates to MDA-MB-231. Nature of the assay: Cytotoxicity against human MDA-MB-231 cells after 72 hrs by MTT assay. Particulars: MDA-MB-231, 72 h.

The IC50 is the concentration that inhibits the measured activity by half. Turning to `Cc1cc(O)cc2c1Oc1c(Cc3ccc(O)cc3)c(O)cc(C)c1C(=O)O2`, the IC50 came to 3.09 µM with MMQ and 3.64 µM in the assay with GH3.
In the assay on MIA PaCa-2, `CCCCC/C=C1/C(=O)OC(=O)[C@@H]1C` returned an IC50 of 16 µM.
On to `COc1cc2c(c3c1Cc1c(cc(O)c(CO)c1C(=O)O)O3)C[C@H]1[C@H](C)CO[C@@]1(C)O2`, for which 12.4 µM corresponded to half-maximal inhibition in the assay with HL-60 [1] (IC50).
As for `C/C=C/[C@@H]1OC(=O)C2=C[C@H](O)[C@@H](/C=C/C)O[C@H]21`, the values for the IC50 in the assay with HCT-116 [2], with MCF7 [3] and in the assay with NCI-H460 were 6.2 µM, 22.5 µM and 1 µM, respectively.
Take `CCCCC/C=C/C1=C(CO)C(=O)[C@H]2O[C@@]2(C/C=C(\C)C(=O)O)C1=O`: the IC50 was 5.1 µM in the assay with A2780cisR and 3.3 µM with A2780S.
As to `COC(=O)C1=C[C@@H](C)C[C@H]2CC[C@@H](O)[C@@]12O`, the IC50 in the assay with MCF7 [4], in the assay on SW480, in the assay with HL-60 [5], in the assay on SMMC-7721, with RPMI-8226 and in the assay on A549 [6] was 3.6 to 16.2 µM throughout.
With `CCOC(=O)c1c(O)cc(O)cc1CCCCCCCC(C)O` (stereo not given), the IC50 in the assay on THP-1 came to 39.7 µM; with A549 [7] it was 13.3 µM; with MDA-MB-231 [8] it was 10.1 µM; in the assay on HCT-116 [9], 11.9 µM; in the assay with HepG2 it was 12.5 µM.
As for `Cc1cc(O)c(C(=O)c2cc(O)cc(O)c2C=O)c(O)c1`, the IC50 with MCF7 [10] worked out at 16.8 µM; in the assay on U2OS, 11.6 µM.
Usually EC50 stands for the concentration needed to bring the measured effect to its halfway point. Turning to `OCC(O)C(O)C(O)C(O)C(O)O[C@H]1[C@H](O)[C@@H](O)[C@H](O)O[C@@H]1CO` (stereo not given in full), the EC50 with Caco-2 is 99.4 µM; with MCF7 [11], 97.6 µM; in the assay on MDA-MB-231 [12], 92.4 µM.
